Where two headings read alike, the source gives them in different places.
Test system: Escherichia coli ATCC 25922
Test: 50% growth inhibitory concentration (IC50) determination, Iso-Sensitest broth dilution
Type: cell-based
Details: strain Escherichia coli ATCC 25922, 10-point broth dilution, optical density at 600 nm over 16 h, read-out: Escherichia coli growth inhibition IC50
Experimental: 50% Growth Inhibitory Concentration (IC50) Determination
The in vitro antimicrobial activity of the compounds was determined according to the following procedure:
The assay used a 10-point Iso-Sensitest broth dilution method to measure quantitatively the in vitro
ATCC 25922, Acinetobacter baumannii ATCC 17961, Klebsiella pneumoniae ATCC 43816 and Staphylococcus aureus ATCC 29213.
Stock compounds in DMSO were serially twofold diluted (e.g. range from 50 to 0.097 μM final concentration) in 384 wells microtiter plates and inoculated with 50 μL of the bacterial suspension in Iso-
ell of 50 μL/well. Microtiter plates were incubated at 35±2° C.
Bacterial cell growth was determined with the measurement of optical density at λ=600 nm each 20 minutes over a time course of 16 h.
Growth inhibition was calculated during the logarithmic growth of the bacterial cells with
Table 1 provides the 50% growth inhibitory concentrations (IC50) in micromoles per liter of the compounds of present invention obtained against the strain Escherichia coli ATCC 25922.

[1] = Escherichia coli, ATCC25922, 16 h

Row | Compound | IC50 [1] [nM] | IC50 [nM]
1 | NC1c2ccnc(Cl)c2CC1CNCCC1CN(c2ccc3c(n2)NC(=O)CO3)C(=O)O1 (stereo not drawn) [Example 123, 6-[2-oxo-5-[2-[[5,6-trans-5-amino-1-chloro-6,7-dihydro-5H-cyclopenta[c]pyridin-6-yl]methylamino]ethyl]-1,3-oxazolidin-3-yl]-4H-pyrido[3,2-b][1,4]oxazin-3-one; formic acid] | 248 | –
2 | O=C1COc2ccc(N3CC(CCNCC4Cc5cc(OC6CNC6)cc(F)c5C4)OC3=O)nc2N1 (stereo not drawn) [Example 150, 6-[5-[2-[[6-(azetidin-3-yloxy)-4-fluoro-2,3-dihydro-1H-inden-2-yl]methylamino]ethyl]-2-oxo-1,3-oxazolidin-3-yl]-4H-pyrido[3,2-b][1,4]oxazin-3-one] | < 97.7 | –
3 | CNC(=O)COc1cc(C)c2c(c1C)CC(CNCCC1CN(c3ccc4c(n3)NC(=O)CO4)C(=O)O1)C2 (stereo not drawn) [Example 112, 2 2-[[4,7-dimethyl-2-[[2-[2-oxo-3-(3-oxo-4H-pyrido[3,2-b][1,4]oxazin-6-yl)-1,3-oxazolidin-5-yl]ethylamino]methyl]-2,3-dihydro-1H-inden-5-yl]oxy]-N-methylacetamide] | 303 | –
4 | COc1cc2c(c(C#N)n1)CC(CNCCC1CN(c3ccc4c(n3)NC(=O)CO4)C(=O)O1)C2 (stereo not drawn) [Example 53, 3-methoxy-6-[[2-[2-oxo-3-(3-oxo-4H-pyrido[3,2-b][1,4]oxazin-6-yl)-1,3-oxazolidin-5-yl]ethylamino]methyl]-6,7-dihydro-5H-cyclopenta[c]pyridine-1-carbonitrile] | < 97.7 | –
5 | N#Cc1cc(OCC2(N)CC2)cc2c1CC(CNCCC1CN(c3cnc4c(n3)NC(=O)CO4)C(=O)O1)C2 (stereo not drawn) [Example 186, 6-((1-aminocyclopropyl)methoxy)-2-(((2-(2-oxo-3-(3-oxo-3,4-dihydro-2H-pyrazino[2,3-b][1,4]oxazin-6-yl)oxazolidin-5-yl)ethyl)amino)methyl)-2,3-dihydro-1H-indene-4-carbonitrile] | < 97.7 | –
6 | O=C1COc2ncc(N3CC(CCNCC4Cc5ncc(F)c(Cl)c5C4)OC3=O)nc2N1 (stereo not drawn) [Example 319, 6-[5-[2-[(4-chloro-3-fluoro-6,7-dihydro-5H-cyclopenta[b]pyridin-6-yl)methylamino]ethyl]-2-oxo-1,3-oxazolidin-3-yl]-4H-pyrazino[2,3-b][1,4]oxazin-3-one; formic acid] | < 97.7 | –
7 | Cn1nnnc1COc1cc(C#N)c2c(c1)CC(CNCCC1CN(c3cnc4c(n3)NC(=O)CO4)C(=O)O1)C2 (stereo not drawn) [Example 391, 6-[(1-methyltetrazol-5-yl)methoxy]-2-[[2-[2-oxo-3-(3-oxo-4H-pyrazino[2,3-b][1,4]oxazin-6-yl)-1,3-oxazolidin-5-yl]ethylamino]methyl]-2,3-dihydro-1H-indene-4-carbonitrile] | 258 | –
8 | Cc1nc(OCCNC(C)C)c(C)c2c1CC(CNCCC1CN(c3ccc4c(n3)NC(=O)CO4)C(=O)O1)C2 (stereo not drawn) [Example 201, 6-[5-[2-[[1,4-dimethyl-3-[2-(propan-2-ylamino)ethoxy]-6,7-dihydro-5H-cyclopenta[c]pyridin-6-yl]methylamino]ethyl]-2-oxo-1,3-oxazolidin-3-yl]-4H-pyrido[3,2-b][1,4]oxazin-3-one] | 157 | –
9 | NCCOc1ccc2c(c1Cl)CC(NCCCC1CN(c3ccc4c(n3)NC(=O)CO4)C(=O)O1)C2 (stereo not drawn) [Example 118, 6-[5-[3-[[5-(2-aminoethoxy)-4-chloro-2,3-dihydro-1H-inden-2-yl]amino]propyl]-2-oxo-1,3-oxazolidin-3-yl]-4H-pyrido[3,2-b][1,4]oxazin-3-one; formic acid] | < 97.7 | –
10 | N#Cc1cccc2c1CC(CN[C@H]1C[C@H](C3CN(c4ccc5c(n4)NC(=O)CO5)C(=O)O3)C1)C2 (stereo partly drawn) [Example 97, 2-[[[trans-3-[2-oxo-3-(3-oxo-4H-pyrido[3,2-b][1,4]oxazin-6-yl)-1,3-oxazolidin-5-yl]cyclobutyl]amino]methyl]-2,3-dihydro-1H-indene-4-carbonitrile] | 185 | –
11 | Cc1ncc(F)c2c1CC(NCCCc1cn(-c3cnc4c(n3)NC(=O)CO4)c(=O)o1)C2 (stereo not drawn) [Example 302, 6-[5-[3-[(4-Fluoro-1-methyl-6,7-dihydro-5H-cyclopenta[c]pyridin-6-yl)amino]propyl]-2-oxo-1,3-oxazol-3-yl]-4H-pyrazino[2,3-b][1,4]oxazin-3-one; formic acid] | < 97.7 | –
12 | N#Cc1cccc2c1CC(CNCCC1OC(=O)N(c3ccc4c(n3)NC(=O)CO4)C1CN)C2 (racemic) [Example 149, 2-[[2-[rac-4,5-trans-4-(aminomethyl)-2-oxo-3-(3-oxo-4H-pyrido[3,2-b][1,4]oxazin-6-yl)-1,3-oxazolidin-5-yl]ethylamino]methyl]-2,3-dihydro-1H-indene-4-carbonitrile; formic acid] | – | 904
13 | O=C1COc2ncc(N3CC(CCNCC4Cc5cc(OCC(=O)N6CCC6)cc(F)c5C4)OC3=O)nc2N1 (stereo not drawn) [Example 307, 6-[5-[2-[[6-[2-(azetidin-1-yl)-2-oxoethoxy]-4-fluoro-2,3-dihydro-1H-inden-2-yl]methylamino]ethyl]-2-oxo-1,3-oxazolidin-3-yl]-4H-pyrazino[2,3-b][1,4]oxazin-3-one; formic acid] | 359 | –
14 | COc1cnc(Cl)c2c1CC(CNCCC1CN(c3ccc4c(n3)NC(=O)CO4)C(=O)O1)C2 (stereo not drawn) [Example 57, 6-[5-[2-[(1-chloro-4-methoxy-6,7-dihydro-5H-cyclopenta[c]pyridin-6-yl)methylamino]ethyl]-2-oxo-1,3-oxazolidin-3-yl]-4H-pyrido[3,2-b][1,4]oxazin-3-one] | 328 | –

The remaining lines, values ahead:

Row | IC50 [1] [nM] | IC50 [nM] | Compound
15 | 178 | – | Cc1nc(OCCN)c(C)c2c1CC(CNCCC1CN(c3ccc4c(n3)NC(=O)CO4)C(=O)O1)C2 (stereo not drawn) [Example 171, 6-[5-[2-[[3-(2-aminoethoxy)-1,4-dimethyl-6,7-dihydro-5H-cyclopenta[c]pyridin-6-yl]methylamino]ethyl]-2-oxo-1,3-oxazolidin-3-yl]-4H-pyrido[3,2-b][1,4]oxazin-3-one]
16 | < 97.7 | – | Cc1nc(C)c2c(c1C)CC(CNCCC1CN(c3ccc4c(n3)NC(=O)CO4)C(=O)O1)C2 (stereo not drawn) [Example 93, 6-[2-oxo-5-[2-[(1,3,4-trimethyl-6,7-dihydro-5H-cyclopenta[c]pyridin-6-yl)methylamino]ethyl]-1,3-oxazolidin-3-yl]-4H-pyrido[3,2-b][1,4]oxazin-3-one]
17 | < 97.7 | – | CNC(=O)COc1ccc2c(c1Cl)CC(CNCCC1CN(c3ccc4c(n3)NC(=O)CO4)C(=O)O1)C2 (stereo not drawn) [Example 108, 2-[[4-chloro-2-[[2-[2-oxo-3-(3-oxo-4H-pyrido[3,2-b][1,4]oxazin-6-yl)-1,3-oxazolidin-5-yl]ethylamino]methyl]-2,3-dihydro-1H-inden-5-yl]oxy]-N-methylacetamide]
18 | < 97.7 | – | NC1(COc2ccc3c(c2Cl)CC(CNCCC2CN(c4ccc5c(n4)NC(=O)CO5)C(=O)O2)C3)CC1 (stereo not drawn) [Example 117, 6-[5-[2-[[5-[(1-aminocyclopropyl)methoxy]-4-chloro-2,3-dihydro-1H-inden-2-yl]methylamino]ethyl]-2-oxo-1,3-oxazolidin-3-yl]-4H-pyrido[3,2-b][1,4]oxazin-3-one; formic acid]
19 | 791 | – | Cc1c(OCC(=O)NC(C)C)ncc2c1CC(CNCCC1CN(c3ccc4c(n3)NC(=O)CO4)C(=O)O1)C2 (stereo not drawn) [Example 224, N-isopropyl-2-((4-methyl-6-(((2-(2-oxo-3-(3-oxo-3,4-dihydro-2H-pyrido[3,2-b][1,4]oxazin-6-yl)oxazolidin-5-yl)ethyl)amino)methyl)-6,7-dihydro-5H-cyclopenta[c]pyridin-3-yl)oxy)acetamide]
20 | 1010 | – | NC1c2ccnc(Cl)c2CC1CNCCC1CN(c2ccc3c(n2)NC(=O)CO3)C(=O)O1 (racemic) [Example 146, 6-[2-oxo-5-[2-[[rac-5,6-cis-5-amino-1-chloro-6,7-dihydro-5H-cyclopenta[c]pyridin-6-yl]methylamino]ethyl]-1,3-oxazolidin-3-yl]-4H-pyrido[3,2-b][1,4]oxazin-3-one; formic acid]
21 | < 97.7 | – | N#Cc1cccc2c1C(N)C(CNCCC1CN(c3ccc4c(n3)NC(=O)CO4)C(=O)O1)C2 (racemic) [Example 156, rac-2,3-trans-3-amino-2-[[2-[2-oxo-3-(3-oxo-4H-pyrido[3,2-b][1,4]oxazin-6-yl)-1,3-oxazolidin-5-yl]ethylamino]methyl]-2,3-dihydro-1H-indene-4-carbonitrile]
22 | 119 | – | NC1c2cccc(Cl)c2CC1NCCCC1CN(c2cnc3c(n2)NC(=O)CO3)C(=O)O1 (racemic) [Example 245, 6-[2-oxo-5-[3-[[rac-1,2-trans-1-amino-4-chloro-2,3-dihydro-1H-inden-2-yl]amino]propyl]-1,3-oxazolidin-3-yl]-4H-pyrazino[2,3-b][1,4]oxazin-3-one]
23 | < 97.7 | – | CNC(=O)COc1ccc2c(c1C#N)CC(CNCCC1CN(c3cnc4c(n3)NC(=O)CO4)C(=O)O1)C2 (stereo not drawn) [Example 286, 2-[[4-cyano-2-[[2-[2-oxo-3-(3-oxo-4H-pyrazino[2,3-b][1,4]oxazin-6-yl)-1,3-oxazolidin-5-yl]ethylamino]methyl]-2,3-dihydro-1H-inden-5-yl]oxy]-N-methylacetamide]
24 | < 97.7 | – | COc1cc2c(c(Cl)n1)CC(CNCCC1CN(c3cnc4c(n3)NC(=O)CO4)C(=O)O1)C2 (stereo not drawn) [Example 50, 6-[5-[2-[(1-chloro-3-methoxy-6,7-dihydro-5H-cyclopenta[c]pyridin-6-yl)methylamino]ethyl]-2-oxo-1,3-oxazolidin-3-yl]-4H-pyrazino[2,3-b][1,4]oxazin-3-one]

— patent publication US20230167127A1, “COMPOUNDS AND THEIR USE IN THE TREATMENT OF BACTERIAL INFECTION” (Hoffmann-La Roche Inc., priority 2020, published 2023)
